Reference: ChEMBL document CHEMBL1151100, “Potential cancer chemopreventive and cytotoxic agents from Pulicaria crispa” (1988)
≈ marks a conversion by molar mass, not a printed value.

How the values were obtained:
KB = assay: Cytotoxicity against human KB cells; type: functional; settings: read-out: ED50 (the source's name)
[1] = Anticarcinogenic activity in hamster embryonic cells at 25 ug/mL after 30 mins relative to control; type: functional, Cricetinae

| Structure (SMILES) | EC50 (KB) [µg/mL] | Activity [1] [%] |
| --- | --- | --- |
| C=C1C(=O)O[C@@H]2C[C@@]3(C)C[C@@H](O)C[C@H](C)C3=C[C@H]12 | 0.33 (≈ 1.33 µM) | – |
| C=C1C(=O)O[C@@H]2C[C@@]3(C)C[C@@H](OC(C)=O)C[C@H](C)[C@@]34O[C@H]4[C@H]12 | 0.05 (≈ 0.163 µM) | – |
| C=C1C(=O)O[C@@H]2C[C@@]3(C)C[C@@H](O)C[C@H](C)[C@@]34O[C@H]4[C@H]12 | 0.4 (≈ 1.51 µM) | – |
| COc1c(O)cc2oc(-c3ccc(O)c(O)c3)c(OC)c(=O)c2c1O [AXILLARIN] | – | 61.3 |
